Experimental data published in patent publication US20240158445A1, “CYCLIC CELL-PENETRATING PEPTIDES WITH THREE OR MORE HYDROPHOBIC RESIDUES” (Ohio State Innovation Foundation, priority 2021, published 2024).
Where a SMILES comes first, the peptide text is derived from it. Side-chain parts run from the residue outwards. [ ]: non-standard residue; d: D form. The star is where a group is joined. X2 = NC(=O)[C@H](CCCCNC(=O)c1ccc(-c2c3ccc4cc(O)ccc4c3oc3c2ccc2cc(=O)ccc23)c(C(=O)O)c1)N*; Lys(5-FITC)NH2 = NC(=O)[C@H](CCCCNC(=S)Nc1ccc2c(c1)C(=O)OC21c2ccc(O)cc2Oc2cc(O)ccc21)N*; X1 = CN(C)c1ccc2c(c1)Oc1cc(N(C)C)ccc1C21OC(=O)c2cc(C(=O)NCCCC[C@H](N*)C(N)=O)ccc21; 2Nal = N[C@@H](Cc1ccc2ccccc2c1)C(=O)O; Bta = N[C@@H](Cc1csc2ccccc12)C(=O)O; AEEA = NCCOCCOCC(=O)O

How the values were obtained:
proteins in FBS = assay: Fluorescence polarization analysis of CPP binding to FBS; set-up: species or system bovine; details: 100 nM labeled peptide, FBS in DPBS, 1 h, FP; read-out: apparent KD to proteins in FBS
Method: General Methods—Fluorescence Polarization (FP) Analysis of CPP Binding to FBS. Fluorescein-labeled peptide (100 nM) was incubated with serial dilutions of FBS (0-100 μM) in DPBS for 1 h. The solutions were transferred to a 384-black microplate (Greiner), and FP values were measured on a Tecan Infinite M1000 Pro plate reader, with excitation and emission wavelengths at 470 and 535 nm, respectively, for FITC, 530 and 580 nm for TMR, and 595 and 660 nm for NF. The titration curves were fitted using GraphPad Prism to the following equation: […]
where FP is the measured polarization, Amin is the minimum FP value, Amax is the maximum FP value, Qb is the quantum yield of the bound fluorophore, Qf is the quantum yield of the free fluorophore, L is the ligand concentration, KD is the dissociation constant, and x is the protein concentration. Data presented are the mean±SD of three independent experiments.

HeLa cells = assay: Live-cell confocal microscopy; format: cell-based, human; details: 2 h, 1% FBS
Method: General Methods—Confocal Microscopy. HeLa cells were seeded in a 35-mm glass-bottomed microwell dish with 4 compartments (Greiner) at a density of 5×10^4 cells/mL (300 μL in each compartment) and cultured overnight. Next day, the cells were gently washed with DPBS twice, and treated for 2 h with FITC- or TMR-labelled peptides (5 μM, 1 μM or 0.2 μM as indicated) in phenol-red free DMEM containing 1% […]. After removal of the medium, the cells were gently washed with DPBS twice and imaged on a Nikon A1R live-cell confocal laser scanning (ECLIPSE Ti-E automated, inverted) microscope equipped with a 100× oil objective (1.45 N.A.) and a heated (37° C.) chamber supplied with 5% CO2. For the red channel (TMR), the laser line with λEx 561 nm was set at 0.6% laser power (for 5 μM peptide treatment), 1.6% laser power (for 1 μM peptide treatment) or 10.8% laser power (for 0.2 μM peptide treatment). For the green channel (FITC), the laser line with λEx 487 nm was set at 0.6% laser power. The data were analyzed using NIS-Elements AR.

Keap1-Nrf2 interaction = assay: Luciferase reporter assay in ARE reporter-HepG2 cells; format: cell-based; details: up to 5 mM concentration
Method: General Methods—Luciferase Reporter Assay. ARE reporter-HepG2 cells (1000 cells per well) were seeded in 100 μL of assay medium (MEM, 0% FBS, and 1% penicillin-streptomycin sulfate) in an opaque 96-well plate and cultured overnight. […] After incubation, 100 μL of One-Step luciferase assay reagent was added to each well and after 15 min of shaking, the luminescence was measured using a Tecan Infinite M1000 Pro microplate reader. P values (<0.05) were estimated using Student's t test.

SMILES | Kd (proteins in FBS) [µM] | intracellular distribution of TMR fluorescence (HeLa cells; 0.2 and 1.0 μM) | increase in luciferase activity (Keap1-Nrf2 interaction) | intracellular distribution of TMR fluorescence (HeLa cells; 5 μM)
CN(C)c1ccc2c(c1)Oc1cc(N(C)C)ccc1C21OC(=O)c2cc(C(=O)NCCCC[C@H](NC(=O)COCCOCCNC(=O)CC[C@@H]3NC(=O)[C@@H](CCCNC(=N)N)NC(=O)[C@H](CCCNC(=N)N)NC(=O)[C@@H](CCCNC(=N)N)NC(=O)[C@H](CCCNC(=N)N)NC(=O)[C@H](Cc4csc5ccccc45)NC(=O)[C@@H](Cc4ccccc4)NC(=O)[C@H](Cc4ccccc4)NC3=O)C(N)=O)ccc21 [CPP12-2^TMR] (cyclo([Bta]R[dR]R[dR]E([AEEA-X1])F[dF])) | 68 ± 9 | predominantly punctate fluorescence in the cytoplasmic region |  | 
CC(C)C[C@@H]1NC(=O)[C@H](Cc2ccccc2)NC(=O)[C@H](CCC(=O)O)NC(=O)CNC(=O)[C@H]([C@@H](C)O)NC(=O)[C@H](CCC(=O)O)NC(=O)[C@@H]2CCCN2C(=O)[C@H](CC(=O)O)NC(=O)[C@H](CC(C)C)NC(=O)[C@H](CCC(N)=O)NC(=O)CNC1=O [Peptide P1] |  |  | did not result in significant increase in luciferase activity | 
CN(C)c1ccc2c(c1)Oc1cc(N(C)C)ccc1C21OC(=O)c2cc(C(=O)NCCCC[C@H](NC(=O)COCCOCCNC(=O)CC[C@@H]3NC(=O)[C@@H](CCCNC(=N)N)NC(=O)[C@H](CCCNC(=N)N)NC(=O)[C@@H](CCCNC(=N)N)NC(=O)[C@H](CCCNC(=N)N)NC(=O)[C@H](Cc4ccc5ccccc5c4)NC(=O)[C@@H](Cc4ccccc4)NC(=O)[C@H](Cc4ccccc4)NC3=O)C(N)=O)ccc21 [CPP12^TMR] (cyclo([2Nal]R[dR]R[dR]E([AEEA-X1])F[dF])) | 27 ± 9 | predominantly punctate fluorescence in the cytoplasmic region |  | very similar intracellular distribution
N=C(N)NCCC[C@@H]1NC(=O)[C@H](Cc2ccc3ccccc3c2)NC(=O)[C@@H](Cc2ccccc2)NC(=O)[C@H](Cc2ccccc2)NC(=O)[C@H](CCC(=O)NCCOCCOCC(=O)N[C@@H](CCCCNC(=S)Nc2ccc3c(c2)C(=O)OC32c3ccc(O)cc3Oc3cc(O)ccc32)C(N)=O)NC(=O)[C@@H](CCCNC(=N)N)NC(=O)[C@H](CCCNC(=N)N)NC(=O)[C@@H](CCCNC(=N)N)NC1=O [CPP12^FITC] (cyclo(F[dF][2Nal]R[dR]R[dR]E([AEEA-Lys(5-FITC)NH2]))) | 29 ± 3 |  |  | 
N=C(N)NCCC[C@@H]1NC(=O)[C@H](Cc2csc3ccccc23)NC(=O)[C@@H](Cc2ccccc2)NC(=O)[C@H](Cc2ccccc2)NC(=O)[C@H](CCC(=O)NCCOCCOCC(=O)N[C@@H](CCCCNC(=S)Nc2ccc3c(c2)C(=O)OC32c3ccc(O)cc3Oc3cc(O)ccc32)C(N)=O)NC(=O)[C@@H](CCCNC(=N)N)NC(=O)[C@H](CCCNC(=N)N)NC(=O)[C@@H](CCCNC(=N)N)NC1=O [CPP12-2^FITC] (cyclo(F[dF][Bta]R[dR]R[dR]E([AEEA-Lys(5-FITC)NH2]))) | 30 ± 5 |  |  | 
N=C(N)NCCC[C@@H]1NC(=O)[C@H](Cc2ccc3ccccc3c2)NC(=O)[C@@H](Cc2ccccc2)NC(=O)[C@H](Cc2ccccc2)NC(=O)[C@H](CCC(=O)NCCOCCOCC(=O)N[C@@H](CCCCNC(=O)c2ccc(-c3c4ccc5cc(O)ccc5c4oc4c3ccc3cc(=O)ccc34)c(C(=O)O)c2)C(N)=O)NC(=O)[C@@H](CCCNC(=N)N)NC(=O)[C@H](CCCNC(=N)N)NC(=O)[C@@H](CCCNC(=N)N)NC1=O [CPP12, cycl(Phe-D-Phe-Nal-Arg-D-Arg-Arg-D-Arg-Gln)] (cyclo([2Nal]R[dR]R[dR]E([AEEA-X2])F[dF])) | 1.3 ± 0.3 |  |  | 
N=C(N)NCCC[C@@H]1NC(=O)[C@H](Cc2csc3ccccc23)NC(=O)[C@@H](Cc2ccccc2)NC(=O)[C@H](Cc2ccccc2)NC(=O)[C@H](CCC(=O)NCCOCCOCC(=O)N[C@@H](CCCCNC(=O)c2ccc(-c3c4ccc5cc(O)ccc5c4oc4c3ccc3cc(=O)ccc34)c(C(=O)O)c2)C(N)=O)NC(=O)[C@@H](CCCNC(=N)N)NC(=O)[C@H](CCCNC(=N)N)NC(=O)[C@@H](CCCNC(=N)N)NC1=O [CPP12-2, Phe-phe-(Bta)-Arg-arg-Arg-arg-Gln] (cyclo([Bta]R[dR]R[dR]E([AEEA-X2])F[dF])) | 1.2 ± 0.4 |  |  | 
